SMILES strings stand for the structures.

For the first assay, the target named is T1, HYAL (bovine testis hyaluronidase) (Bos taurus, UniProt Q2YDK3).
T1 construct: gene SPAM1; commercial native preparation from bovine testis (Merck)
T1 sequence (Q2YDK3 36-553): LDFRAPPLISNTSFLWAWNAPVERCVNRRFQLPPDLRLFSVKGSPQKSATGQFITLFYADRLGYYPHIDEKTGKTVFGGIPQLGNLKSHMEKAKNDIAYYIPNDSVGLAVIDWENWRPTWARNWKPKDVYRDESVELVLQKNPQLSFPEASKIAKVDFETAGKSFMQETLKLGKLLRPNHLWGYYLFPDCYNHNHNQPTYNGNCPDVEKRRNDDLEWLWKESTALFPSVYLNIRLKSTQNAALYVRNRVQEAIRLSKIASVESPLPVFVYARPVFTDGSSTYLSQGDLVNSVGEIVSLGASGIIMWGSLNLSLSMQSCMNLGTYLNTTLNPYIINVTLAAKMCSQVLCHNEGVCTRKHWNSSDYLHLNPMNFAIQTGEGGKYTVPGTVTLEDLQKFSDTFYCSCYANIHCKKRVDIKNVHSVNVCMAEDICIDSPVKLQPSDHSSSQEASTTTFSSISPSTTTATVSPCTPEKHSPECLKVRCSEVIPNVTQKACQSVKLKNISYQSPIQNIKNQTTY
Put plainly: hyaluronidase inhibition assay. The class given is biochemical. The settings on record: positive control; read-out: Anti-Inflammatory Activity / HYAL / IC50 (μM) ^a. An excerpt:
hyaluronidase inhibition assay on HYAL (bovine testis hyaluronidase)
Take `C[C@@H]1C[C@H]2[C@@H]3CCC4=CC(=O)C=C[C@]4(C)[C@@]3(F)[C@@H](O)C[C@]2(C)[C@@]1(O)C(=O)CO` [DEX, dexamethasone, reference compound]: the IC50 stood at 36.1 ± 2.68 µM.

With `COc1ccc2c(c1)c(CC(=O)O)c(C)n2C(=O)c1ccc(Cl)cc1` [IND, indomethacin, reference compound], the IC50 turned out to be 35.7 ± 5.34 µM.

The assay is the same for the next values; noted with them: tested at […]; read-out: Anti-Inflammatory Activity / HYAL / IC50 (μM) ^a.
As for `O=C(/C=C/c1ccc(O)c(O)c1)O[C@@H]1C[C@](O)(C(=O)O)C[C@@H](O)[C@H]1O` [CHA, 5-O-caffeoylquinic acid], the IC50 was 80.7 ± 3.42 µM.

For the compound `O=C(O)[C@H]1O[C@@H](Oc2c(-c3ccc(O)c(O)c3)oc3cc(O)cc(O)c3c2=O)[C@H](O[C@@H]2OC[C@@H](O)[C@H](O)[C@H]2O)[C@@H](O)[C@@H]1O` [DGQ, quercetin 3-O-β-D-xylopyranosyl-(1→2)-β-D-glucuronopyranoside], the IC50 came to 98.1 ± 2.31 µM.

Regarding `Oc1cc(O)c2c(c1)O[C@H](c1ccc(O)c(O)c1)[C@H](O)C2` [ECA, (−)-epicatechin], the IC50 was 81.9 ± 3.96 µM.

With `COC(=O)c1ccccc1O[C@@H]1O[C@H](CO[C@@H]2OC[C@@H](O)[C@H](O)[C@H]2O)[C@@H](O)[C@H](O)[C@H]1O` [GT, methyl salicylate 2-O-β-D-xylopyranosyl-(1→6)-β-D-glucuronopyranoside], the IC50 is 64 ± 2.87 µM.

In the case of `O=C(O)[C@H]1O[C@@H](Oc2c(-c3ccc(O)c(O)c3)oc3cc(O)cc(O)c3c2=O)[C@H](O)[C@@H](O)[C@@H]1O` [MQ, quercetin 3-O-β-D-glucuronopyranoside], the IC50 worked out at 98.2 ± 4.41 µM.

Regarding `Oc1cc(O)c2c(c1)O[C@H](c1ccc(O)c(O)c1)[C@H](O)[C@H]2c1c(O)cc(O)c2c1O[C@H](c1ccc(O)c(O)c1)[C@H](O)C2` [PB2, epicatechin-(4β→8)-epicatechin], the IC50 was found to be 37.4 ± 1.78 µM.

Turning to `O=c1c(O)c(-c2ccc(O)c(O)c2)oc2cc(O)cc(O)c12` [QU, quercetin], the IC50 is 102 ± 6.09 µM.
